Source: article PMC4076210, “Discovery of Novel AKT Inhibitors with Enhanced Anti-Tumor Effects in Combination with the MEK Inhibitor” (PLoS ONE, 2014)

Tested on: solid tumor cell lines
Test: 3-day proliferation assay (CellTiter-Glo)
Assay type: cell-based, human
Settings: for IC50: Homo sapiens
Procedure, shortened: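 Growth was measured by CellTiter-Glo relative to untreated (DMSO) controls. EC50 came from 4- or 6-parameter curve fits.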

In the case of `Cn1ncc(Cl)c1-c1cc(C(=O)N[C@H](CN)Cc2ccc(F)c(F)c2)oc1Cl` [GSK2141795], the “solid tumor cell lines with EC50<1 µM” value (178 cell lines, 3 days, CTG) is reported as 36%, the IC50 (22Rv1, 22Rv1, Prostate) is reported as 244 nM and the IC50 (647-V, 647V, Bladder) is reported as 7560 nM. The IC50 (786-0, 786-O, Kidney) was 577 nM, the IC50 (A 172, A172, Brain) was 5700 nM and the IC50 (A204, A204, Sarcoma) was 1060 nM. For the same compound, the IC50 (A549, A549, Lung) was 1540 nM, the IC50 (A673, A673, Sarcoma) was 3400 nM and the IC50 (A2780, A2780, Ovary) was 2300 nM. The IC50 (A-375, A375, Skin) was 13800 nM, the IC50 (A-427, A427, Lung) was 1960 nM and the IC50 (ACHN, Kidney) was 1480 nM. It also gave an IC50 (AGS, Stomach) of 491 nM, an IC50 (BE(2)-C, BE2C, Neuroblastoma) of 664 nM and an IC50 (BFTC-905, BFTC905, Bladder) of 1380 nM. For the same compound, the IC50 (BT-20, BT20, Breast) was 79 nM, the IC50 (BXPC-3, BXPC3, Pancreas) was 17200 nM and the IC50 (C3A, Liver) was 966 nM. The IC50 (C32TG, Skin) was 537 nM, the IC50 (C-33-A, C-33A, Cervix) was 238 nM and the IC50 (C-41, Cervix) was 15500 nM. It also gave an IC50 (CAL-27, CAL27, Head & Neck) of 6590 nM, an IC50 (CAL-62, CAL62, Thyroid) of 8050 nM and an IC50 (CCF-STTG1, CCFSTTG1, Brain) of 164 nM. For the same compound, the IC50 (CGTH-W-1, CGTHW1, Thyroid) was 2100 nM, the IC50 (CHL-1, CHL1, Skin) was 3040 nM and the IC50 (CHP-212, CHP212, Neuroblastoma) was 595 nM. The IC50 (COLO 205, COLO205, Colon) was 3680 nM, the IC50 (COLO 320DM, COLO320DM, Colon) was 698 nM and the IC50 (COLO 704, COLO704, Ovary) was 104 nM. For the same compound, the IC50 (COR-L23, CORL23, Lung) was 5510 nM, the IC50 (Calu-3, CALU3, Lung) was 850 nM and the IC50 (Calu-6, CALU6, Lung) was 3720 nM. It also gave an IC50 (Caov-3, CAOV3, Ovary) of 4230 nM, an IC50 (Capan-2, Capan2, Pancreas) of 4230 nM and an IC50 (DBTRG-05MG, DBTRG05MG, Brain) of 3690 nM. For the same compound, the IC50 (DKMG, Brain) was 946 nM, the IC50 (DLD-1, DLD1, Colon) was 5920 nM and the IC50 (DU-145, DU145, Prostate) was 3460 nM. For the same compound, the IC50 (DU-4475, DU4475, Breast) was 1760 nM, the IC50 (DoTc2-4510, DoTc24510, Cervix) was 1380 nM and the IC50 (EFM-19, EFM19, Breast) was 49 nM. For the same compound, the IC50 (EKVX, Lung) was 3910 nM, the IC50 (ES2, Ovary) was 1750 nM and the IC50 (FaDu, Head & Neck) was 9180 nM. For the same compound, the IC50 (G-401, G401, Head & Neck) was 473 nM, the IC50 (GCT, Sarcoma) was 3200 nM and the IC50 (H4, Brain) was 1630 nM. For the same compound, the IC50 (HCC70, HCC70, Breast) was 38 nM, the IC50 (HCC1954, HCC1954, Breast) was 117 nM and the IC50 (HCC 2998, HCC2998, Colon) was 1400 nM. For the same compound, the IC50 (HCT-116, HCT116, Colon) was 3990 nM, the IC50 (HMCB, Skin) was 2820 nM and the IC50 (HN5, Head & Neck) was 1990 nM. For the same compound, the IC50 (HOS, Sarcoma) was 1180 nM, the IC50 (HPAF-II, HPAFII, Pancreas) was 4330 nM and the IC50 (HT3, Cervix) was 1450 nM. The IC50 (HT-29, HT29, Colon) was 1040 nM, the IC50 (HT-1080, HT1080, Sarcoma) was 3460 nM and the IC50 (HUVEC, Normal Endothelial) was 3180 nM. The IC50 (HeLa, Cervix) was 5720 nM, the IC50 (Hep3B, Liver) was 154 nM and the IC50 (Hs746T, Stomach) was 1090 nM. The IC50 (IGROV-1, IGROV1, Ovary) was 21 nM, the IC50 (J82, Bladder) was 783 nM and the IC50 (KATO III, KATOIII, Stomach) was 255 nM. For the same compound, the IC50 (KHOS-240S, KHOS240S, Sarcoma) was 7400 nM, the IC50 (KM12, KM12, Colon) was 3270 nM and the IC50 (KPL-1, KPL1, Breast) was 1390 nM. For the same compound, the IC50 (KYSE-30, KYSE30, Oesophagus) was 3210 nM, the IC50 (LNCaP, Prostate) was 57 nM and the IC50 (LS174T, Colon) was 1360 nM. It also gave an IC50 (LS-1034, LS1034, Colon) of 1640 nM, an IC50 (M14, Skin) of 1880 nM and an IC50 (MC-IXC, MCIXC, Neuroblastoma) of 282 nM. For the same compound, the IC50 (MCF7, MCF7, Breast) was 139 nM, the IC50 (MCF-10A, MCF10A, Normal Breast) was 528 nM and the IC50 (MDA-MB-175-VII, MDAMB175-VII, Breast) was 86 nM. It also gave an IC50 (MDA-MB-231, MDAMB231, Breast) of 7620 nM, an IC50 (MDA-MB-453, MDAMB453, Breast) of 474 nM and an IC50 (MDA-MB-468, MDAMB468, Breast) of 369 nM. It also gave an IC50 (MES-SA, MESSA, Sarcoma) of 342 nM, an IC50 (MIA PaCa-2, MiaPaCa, Pancreas) of 871 nM and an IC50 (NCI-H69, NCIH69, Lung) of 648 nM. For the same compound, the IC50 (NCI-H82, NCIH82, Lung) was 15100 nM, the IC50 (NCI-H146, NCIH146, Lung) was 7770 nM and the IC50 (NCI-H157, NCIH157, Lung) was 1340 nM. It also gave an IC50 (NCI-H187, NCIH187, Lung) of 115 nM, an IC50 (NCI-H209, NCI-H209, Lung) of 853 nM and an IC50 (NCI-H226, NCIH226, Lung) of 2760 nM. It also gave an IC50 (NCI-H292, NCIH292, Lung) of 2870 nM, an IC50 (NCI-H322, NCIH322, Lung) of 4710 nM and an IC50 (NCI-H358, NCI-H358, Lung) of 635 nM. For the same compound, the IC50 (NCI-H446, NCIH446, Lung) was 256 nM, the IC50 (NCI-H460, NCIH460, Lung) was 1940 nM and the IC50 (NCI-H508, NCIH508, Lung) was 159 nM. The IC50 (NCI-H520, NCIH520, Lung) was 200 nM, the IC50 (NCI-H630, NCIH630, Lung) was 3080 nM and the IC50 (NCI-H661, NCIH661, Lung) was 3300 nM. The IC50 (NCI-H716, NCIH716, Colon) was 1640 nM, the IC50 (NCI-H747, NCIH747, Lung) was 474 nM and the IC50 (NCI-H1563, NCIH1563, Lung) was 140 nM. The IC50 (NCI-H1792, NCIH1792, Lung) was 2840 nM, the IC50 (NCI-H2030, NCIH2030, Lung) was 3160 nM and the IC50 (NCI-H2052, NCIH2052, Lung) was 1590 nM. The IC50 (NCI-H2081, NCIH2081, Lung) was 507 nM, the IC50 (NCI-H2122, NCIH2122, Lung) was 1910 nM and the IC50 (NCI-H2170, NCI-H2170, Lung) was 3190 nM. It also gave an IC50 (NCI-H2228, NCIH2228, Lung) of 409 nM, an IC50 (NCI-N87, NCIN87, Stomach) of 568 nM and an IC50 (NCI/ADR-RES, NCIADRRES, Breast) of 8010 nM. For the same compound, the IC50 (OE19, OE19, Oesophagus) was 2280 nM, the IC50 (OE21, OE21, Oesophagus) was 111 nM and the IC50 (OE33, OE33, Oesophagus) was 4280 nM. For the same compound, the IC50 (OV-90, OV90, Ovary) was 2080 nM, the IC50 (OVCAR-3, OVCAR3, Ovary) was 3150 nM and the IC50 (OVCAR-4, OVCAR4, Ovary) was 29300 nM. For the same compound, the IC50 (OVCAR-5, OVCAR5, Ovary) was 5270 nM, the IC50 (PANC-1, Panc1, Pancreas) was 2220 nM and the IC50 (PC3, Prostate) was 1390 nM. The IC50 (PL45, PL45, Pancreas) was 6100 nM, the IC50 (Panc 02.03, Panc02.03, Pancreas) was 10700 nM and the IC50 (RD, Sarcoma) was 6290 nM. For the same compound, the IC50 (RD-ES, RDES, Sarcoma) was 808 nM, the IC50 (RKO, Colon) was 676 nM and the IC50 (SAOS-2, SAOS2, Sarcoma) was 2370 nM. The IC50 (SCC12, SCC12, Head & Neck) was 1290 nM, the IC50 (SCC-9, SCC9, Head & Neck) was 2390 nM and the IC50 (SCC-13, SCC-13, Head & Neck) was 23700 nM. It also gave an IC50 (SCC-15, SCC15, Head & Neck) of 1980 nM, an IC50 (SCC-25, SCC-25, Head & Neck) of 2480 nM and an IC50 (SCLC3, Lung) of 54 nM. For the same compound, the IC50 (SF-295, SF295, Brain) was 373 nM, the IC50 (SF-539, SF539, Brain) was 388 nM and the IC50 (SH4, Skin) was 5520 nM. The IC50 (SHP77, SHP77, Lung) was 3100 nM, the IC50 (SJRH30, SJRH30, Sarcoma) was 284 nM and the IC50 (SK-BR-3, SKBR3, Breast) was 96 nM. It also gave an IC50 (SK-LMS-1, SKLMS1, Sarcoma) of 5870 nM, an IC50 (SK-MEL-1, SKMEL1, Skin) of 2500 nM and an IC50 (SK-MEL-28, SKMEL28, Skin) of 1610 nM. For the same compound, the IC50 (SK-MES-1, SKMES-1, Lung) was 2180 nM, the IC50 (SK-N-AS, SKNAS, Neuroblastoma) was 3400 nM and the IC50 (SK-OV-3, SKOV3, Ovary) was 435 nM. The IC50 (SK-UT-1, SKUT1, Sarcoma) was 202 nM, the IC50 (SKNF1, Neuroblastoma) was 239 nM and the IC50 (SN12C, Kidney) was 11300 nM. The IC50 (SNB-75, SNB75, Brain) was 449 nM, the IC50 (SNU1, SNU1, Stomach) was 1420 nM and the IC50 (SNU-5, SNU5, Stomach) was 7810 nM. It also gave an IC50 (SNU-16, SNU16, Stomach) of 7200 nM, an IC50 (SNU-398, SNU398, Liver) of 13400 nM and an IC50 (SNU-449, SNU449, Liver) of 6050 nM. The IC50 (SW48, SW48, Colon) was 328 nM, the IC50 (SW480, SW480, Colon) was 10300 nM and the IC50 (SW579, SW579, Thyroid) was 957 nM. For the same compound, the IC50 (SW684, SW684, Sarcoma) was 336 nM, the IC50 (SW756, SW756, Cervix) was 8290 nM and the IC50 (SW780, SW780, Bladder) was 4960 nM. For the same compound, the IC50 (SW872, SW872, Sarcoma) was 289 nM, the IC50 (SW900, SW900, Lung) was 8220 nM and the IC50 (SW1088, SW1088, Brain) was 532 nM. The IC50 (SW1417, SW1417, Colon) was 1360 nM, the IC50 (SW1783, SW1783, Brain) was 182 nM and the IC50 (SW1990, SW1990, Pancreas) was 9150 nM. The IC50 (Skut1B, Sarcoma) was 10 nM, the IC50 (T47D, T-47D, Breast) was 63 nM and the IC50 (T84, Colon) was 2240 nM. The IC50 (TE 381.T, TE381T, Sarcoma) was 834 nM, the IC50 (TK-10, TK10, Kidney) was 3330 nM and the IC50 (U20S, Sarcoma) was 23200 nM. For the same compound, the IC50 (U138-MG, U138MG, Brain) was 1160 nM, the IC50 (U-87 MG, U87MG, Brain) was 3320 nM and the IC50 (U-251, U251, Brain) was 1220 nM. For the same compound, the IC50 (UACC-62, UACC62, Skin) was 1230 nM, the IC50 (UACC-257, UACC257, Skin) was 2990 nM and the IC50 (UMUC3, UMUC3, Bladder) was 5830 nM. It also gave an IC50 (YAPC, Pancreas) of 10300 nM and an IC50 (ZR-75-1, ZR75-1, Breast) of 33 nM.
